# Measurements published in the supplement of paper PMC10307832.
# Assays:
# Test in all cases: relative viability (nuclei count vs DMSO), 5 days (fraction); higher = more cells survive
# [1] = compound: CCN(CC)CCCCNc1ncc2cc(-c3cc(OC)cc(OC)c3)c(NC(=O)NC(C)(C)C)nc2n1
# Summary of the method: (§1)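 Viability was defined as treated-well nuclei divided by vehicle-well nuclei, with the median taken over replicate plates. Cells from lung cancer lines sat overnight at 37 °C in 1536-well plates, received five √10-spaced library-drug doses by pinning on vehicle-anchored plates, and grew 5 days without medium change before one-step fixation, permeabilisation and Hoechst staining, 4× imaging and MetaXpress nuclear counts. Only plates with control CV under 25% and at least one doubling were kept.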
# [2] = compound: C1COCCN1C2=CC(=O)C3=C(O2)C(=CC=C3)C4=CC=CC5=C4SC6=CC=CC=C56
# Summary of the method: as §1
# [3] = compound: COCC1(CO)C(=O)C2CCN1CC2 [PRIMA-1MET]
# Summary of the method: as §1
# [4] = compound: COc1nc(C)cnc1NS(=O)(=O)c1cccnc1-c1ccc(-c2nnco2)cc1 [Zibotentan]
# Summary of the method: as §1
# [5] = compound: O=c1cc(-c2cccc3c2Sc2ccccc2S3)oc(N2CCOCC2)c1
# Summary of the method: as §1
Cell Line,relative viability ([1]; 0.03162 µM),relative viability ([1]; 0.1 µM),relative viability ([1]; 0.3162 µM),relative viability ([1]; 1 µM),relative viability ([2]; 0.01 µM),relative viability ([2]; 0.03162 µM),relative viability ([2]; 0.1 µM),relative viability ([2]; 0.3162 µM),relative viability ([2]; 1 µM),relative viability ([3]; 0.2 µM),relative viability ([3]; 0.6325 µM),relative viability ([3]; 2 µM),relative viability ([3]; 6.325 µM),relative viability ([3]; 20 µM),relative viability ([4]; 0.08 µM),relative viability ([4]; 0.8 µM),relative viability ([4]; 2.53 µM),relative viability ([5]; 0.08 µM),relative viability ([5]; 0.253 µM),relative viability ([5]; 0.8 µM),relative viability ([5]; 2.53 µM),relative viability ([5]; 8 µM),relative viability ([1]; 0.01 µM),relative viability ([4]; 0.253 µM)
EMC-BAC-2,0.967,1.13,1.13,0.994,0.94,1.03,1.07,1.09,0.655,1.31,0.916,0.738,1.05,0.971,1.41,1.08,1.02,0.927,1.12,0.999,1.03,1.18,–,–
EPLC-272H,0.686,1.03,1.05,0.703,1.01,0.947,0.676,1.04,0.87,0.862,0.839,0.943,1.03,0.831,0.945,0.863,0.911,0.936,0.939,0.959,0.907,1.18,1.04,1.07
H3255,0.938,1.07,1.12,0.978,0.926,0.96,0.95,1.05,0.812,0.992,0.89,0.938,0.989,0.952,0.981,1.06,0.938,0.929,0.917,0.994,0.994,1.19,0.999,1.03
HARA,1.06,1.04,0.993,0.636,0.859,0.893,0.958,0.981,0.865,1.04,0.796,–,0.977,0.997,1.04,0.951,1,0.903,1.12,0.94,0.767,0.843,1.14,0.86
HCC-15,1.03,1.08,1.2,0.957,0.963,1.14,1.08,0.968,1.03,0.967,0.856,0.936,1.01,0.874,0.995,1.09,1.01,0.954,1.13,1.06,0.94,1.06,1.08,0.994
HCC-44,0.976,1.07,1.05,1.06,0.981,1.04,1.01,0.979,0.933,1.05,0.921,1.04,0.922,0.974,1.07,0.978,0.986,0.956,1.04,0.919,0.905,1.04,0.982,0.935
HCC-78,0.906,1.06,1.08,0.917,1.07,0.94,0.856,0.886,0.774,1.15,0.925,0.724,1.03,0.474,1.03,0.937,0.782,0.949,1.09,0.75,0.871,1.03,0.879,0.942
HCC-366,1.05,1.13,1.02,1,1.02,1.01,1.09,1.02,1.02,1.08,0.991,–,1.06,0.854,1.03,0.877,1.01,0.999,1.08,1.09,1.03,1.06,1.03,0.992
HCC-827,1.07,1.08,1.06,1,1.04,1.11,1.02,1.06,0.992,0.986,0.952,0.791,1.02,1.02,1.05,1.05,1.01,1.04,1.07,1.05,0.773,1.06,1.04,1.04
HOP-62,1.09,1.21,1.06,1.05,1.08,1,0.997,0.954,0.981,1.06,0.989,0.915,1.14,0.744,1.03,1.16,1.01,1.03,1.11,1.13,0.886,1.14,1.06,1.03
IA-LM,0.879,0.916,1.25,0.883,0.997,0.894,0.96,0.862,0.825,0.995,0.813,1.02,1.01,0.958,0.937,1,0.972,0.987,1.05,0.887,0.805,1.12,1.02,0.938
LC-2-ad,1.05,1.1,1.15,0.88,1.01,1.07,1.01,1.01,1.01,1.03,0.84,0.819,1.05,0.935,1.03,0.993,1.03,0.924,1.1,1.06,0.967,1.02,1.02,0.868
LCLC-97TM1,0.81,1.11,1.03,0.864,0.978,0.973,0.969,0.953,1.04,0.845,0.738,1.03,0.963,0.468,0.979,1.06,1.04,0.971,0.962,0.929,0.794,1.09,0.725,0.86
LCLC-103H,1.01,1.02,0.952,0.687,1.06,1.02,1.01,0.903,0.997,1.04,0.875,0.805,1.02,0.993,1.08,0.923,1.01,0.96,1.01,1,0.953,1.05,1.01,0.98
LK-2,0.944,0.903,0.709,0.312,1.03,1.07,1.12,0.97,1.07,1.06,0.925,0.602,0.514,0.197,1.24,0.906,0.953,1.09,1.16,1.06,0.9,1.45,1.06,0.923
LOU-NH91,0.975,1.03,1.12,0.949,0.905,0.974,0.928,1.1,0.92,1.15,0.894,0.81,0.999,0.655,0.969,1.01,1.08,0.92,1.02,0.868,0.79,0.981,0.91,0.876
LU99A,0.972,0.997,1.01,0.899,0.957,1.03,1.02,0.888,0.997,0.939,0.852,0.822,0.935,0.508,1.06,0.938,0.89,0.901,0.935,1.01,1.02,0.997,0.888,0.912
LXF-289,1.02,1.06,1.02,0.844,1.05,1.01,1.03,1.01,1.07,1.08,0.983,1.16,1.04,0.942,1.02,1.02,1.01,1.01,1.03,1.02,0.99,1.02,1.01,1.01
NCI-H23,1,0.957,1.08,0.977,0.981,1.11,–,1.12,1.03,0.904,0.754,0.814,0.909,0.201,1.05,0.89,1.1,0.776,1.11,1.02,0.846,0.879,0.923,0.91
NCI-H322M,0.923,1.05,1.07,0.871,0.895,1.01,–,0.97,0.77,1.13,0.831,–,1.11,0.838,1.03,0.906,0.983,0.841,0.969,0.848,0.879,0.875,0.926,0.818
NCI-H358,0.933,1.05,1.15,0.815,0.857,0.93,1.04,1.07,1.05,1.09,0.775,0.829,1.07,0.451,0.954,0.924,0.956,0.807,1.04,0.985,0.988,0.888,0.899,0.675
NCI-H441,1.08,1.25,1.12,0.995,1.1,0.977,1.08,0.938,1.05,1,0.87,0.812,0.99,0.713,1.11,1.3,0.985,1.02,1.27,1.23,0.971,1.1,1.05,0.828
NCI-H460,1.05,1.14,1.09,0.959,0.971,0.993,1.01,1,0.989,1.01,0.859,0.86,1.02,0.592,1.04,0.926,0.995,1,1.13,0.918,0.935,1.08,0.994,0.838
NCI-H520,1,0.965,0.763,0.306,1.08,1.06,0.98,1.02,0.955,1.09,0.722,0.678,0.817,0.163,1.14,0.801,1.15,0.95,1.2,1.12,0.906,0.997,0.962,0.924
NCI-H522,1.05,0.914,0.96,0.907,1.09,0.992,0.889,1.21,0.984,0.888,0.804,0.921,0.886,0.279,0.839,0.904,0.867,0.888,1.01,0.798,0.908,0.967,1.11,0.957
NCI-H596,1.06,0.992,0.915,0.858,0.999,0.984,0.916,1.02,0.939,0.981,0.875,0.857,1.14,0.224,0.842,1.07,1.12,0.947,1.08,1.04,0.916,0.979,0.973,1.01
NCI-H647,1,1.04,1.1,0.903,0.911,0.918,0.867,1.05,0.986,1.11,0.824,0.783,1.04,0.762,0.964,0.887,0.993,0.937,1.2,1.02,0.855,1.01,0.94,0.83
NCI-H650,0.926,1.19,0.983,0.888,0.909,1.07,–,1.08,0.884,1.24,–,0.913,1.03,0.128,1.02,0.988,0.912,0.979,0.857,1.01,0.76,1.1,0.836,0.792
